Data reported in patent US20040039031A1, “Novel pharmaceutical compositions having an antidiabetic action, and process for their preparation” (priority 2000, published 2004).

Legend:
NIDD rats, of STZ type = assay: Earlier study of glibenclamide 0.5 mg/kg daily in NIDD rats of STZ type; assay type: in vivo; conditions: daily dose of 0.5 mg/kg
NIDD STZ rats = assay: Streptozotocin-induced NIDD diabetic rats, eight-day oral treatment, plasma biological parameters; assay type: in vivo, male Wistar rats; conditions: for Glycaemia at D29 as percent of D21: values at D21 taken as 100%
Method: 40 male Wistar rats (Charles River, Saint Aubin les Elbeuf, France), with an average weight of 280 g, are used in this experiment. The animals are housed for one week in a standardised animal house, the following parameters of which are controlled: The forty rats are made diabetic by IP administration of 50 mg/kg of streptozotocin dissolved in physiological saline (a single administration). […] For each rat, 100 μl of blood are collected by venepuncture in a caudal vein, onto heparin, at time D0 (before the administration of STZ), at time D21 (21 days after STZ, before the treatments) and at D29 (after eight days of treatment). The samples are immediately centrifuged (10 minutes at 4000 rpm) and the plasma is separated from the blood cells. The samples are frozen until the time of determination of the biological parameters. After thawing the plasma samples, the above parameters are determined by enzymatic methods, using a COBAS automated machine (Roche). The glycaemia is measured by the hexokinase method; the cholesterol by the enzymatic final Randox point method; the triglycerides by the GPO-PAP method; the lactic acid by the lactic dehydrogenase method. The circulating insulin is measured by radioimmunoassay using CEA kits. The efficacy of the treatments is evaluated between […] by a t test adapted to paired series (for each rat, the value at D21 relative to D29 serves as the control).

[1] = glibenclamide 1 mg/kg/day group, D0 (before STZ)
[2] = glibenclamide 1 mg/kg/day group, D21 (21 days after STZ, before treatment)
[3] = glibenclamide 1 mg/kg/day orally in two doses, D29 (after eight days of treatment)
[4] = glibenclamide 2 mg/kg/day group, D0 (before STZ)
[5] = glibenclamide 2 mg/kg/day group, D21 (21 days after STZ, before treatment)
[6] = glibenclamide 2 mg/kg/day orally in two doses, D29 (after eight days of treatment)
[7] = glibenclamide higher dose 2 mg/kg/day, D29 vs D21
[8] = glibenclamide low dose 1 mg/kg/day, D29 vs D21
[9] = metformin 30 mg/kg/day group, D0 (before STZ)
[10] = metformin 30 mg/kg/day group, D21 (21 days after STZ, before treatment)
[11] = metformin (hydrochloride) 30 mg/kg/day orally in two doses, D29 (after eight days of treatment)

glibenclamide
Activity of daily dose (NIDD rats, of STZ type): inactive
Glycaemia at D29 as percent of D21 (NIDD STZ rats; Glibenclamide 2 mg/kg/day): 93.49 +/− 1.15%
Cholesterol (NIDD STZ rats; [1]): 1.03 +/− 0.04 mM/l
Glycaemia (NIDD STZ rats; [1]): 6.39 +/− 0.17 mM/l
Insulinaemia (NIDD STZ rats; [1]): 12.8 +/− 0.8 μU/ml
Lactates (NIDD STZ rats; [1]): 2.19 +/− 0.07 mM/l
Triglycerides (NIDD STZ rats; [1]): 0.87 +/− 0.05 mM/l
Cholesterol (NIDD STZ rats; [2]): 1.65 +/− 0.08 mM/l
Glycaemia (NIDD STZ rats; [2]): 14.22 +/− 0.65 mM/l
Insulinaemia (NIDD STZ rats; [2]): 16.7 +/− 0.8 μU/ml
Lactates (NIDD STZ rats; [2]): 2.59 +/− 0.10 mM/l
Triglycerides (NIDD STZ rats; [2]): 1.04 +/− 0.10 mM/l
Cholesterol (NIDD STZ rats; [3]): 1.42 +/− 0.08 mM/l
Glycaemia (NIDD STZ rats; [3]): 14.66 +/− 0.47 mM/l
Insulinaemia (NIDD STZ rats; [3]): **1.92 +/− 0.8 μU/ml
Lactates (NIDD STZ rats; [3]): **1.33 +/− 0.15 mM/l
Triglycerides (NIDD STZ rats; [3]): 1.04 +/− 0.10 mM/l
Cholesterol (NIDD STZ rats; [4]): 1.04 +/− 0.02 mM/l
Glycaemia (NIDD STZ rats; [4]): 6.49 +/− 0.13 mM/l
Insulinaemia (NIDD STZ rats; [4]): 12.7 +/− 0.6 μU/ml
Lactates (NIDD STZ rats; [4]): 2.33 +/− 0.12 mM/l
Triglycerides (NIDD STZ rats; [4]): 0.88 +/− 0.06 mM/l
Cholesterol (NIDD STZ rats; [5]): 1.49 +/− 0.04 mM/l
Glycaemia (NIDD STZ rats; [5]): 14.66 +/− 0.73 mM/l
Insulinaemia (NIDD STZ rats; [5]): 17.0 +/− 1.0 μU/ml
Lactates (NIDD STZ rats; [5]): 2.67 +/− 0.17 mM/l
Triglycerides (NIDD STZ rats; [5]): 1.01 +/− 0.05 mM/l
Cholesterol (NIDD STZ rats; [6]): 1.52 +/− 0.06 mM/l
Glycaemia (NIDD STZ rats; [6]): **13.70 +/− 0.66 mM/l
Insulinaemia (NIDD STZ rats; [6]): **21.0 +/− 1.4 μU/ml
Lactates (NIDD STZ rats; [6]): **1.38 +/− 0.13 mM/l
Triglycerides (NIDD STZ rats; [6]): 0.93 +/− 0.04 mM/l
Glycaemia (NIDD STZ rats; glibenclamide 2 mg/kg/day orally in two doses, D29 (after eight days of treatment), listed as glibenclamide): 13.70 +/− 0.66 mM/l
Decrease in glycaemia (NIDD STZ rats; glibenclamide alone 2 mg/kg/day, D29 vs D21): 6.51%
Effect on insulinaemia (NIDD STZ rats; [7]): still higher on average
Effect on lactate levels (NIDD STZ rats; [7]): significantly reduced
Effect on glycaemia (NIDD STZ rats; glibenclamide higher dose 2 mg/kg/day, D29 vs D21, paired t test): significantly decreases
Effect on glycaemia (NIDD STZ rats; [8]): does not modify
Effect on insulinaemia (NIDD STZ rats; [8]): significant increase
Effect on level of circulating lactates (NIDD STZ rats; [8]): decrease
Minimum active dose (NIDD STZ rats; orally in two doses, eight days, NIDD STZ rats): 2 mg/kg/day

CN(C)C(=N)N=C(N)N [Metformin, metformin]
glycaemia at D29 (% of D21) (NIDD STZ rats; Metformin 30 mg/kg/day): 86%
Glycaemia at D29 as percent of D21 (NIDD STZ rats; Metformin 30 mg/kg/day): 86.03 +/− 4.29%
Cholesterol (NIDD STZ rats; [9]): 1.00 +/− 0.07 mM/l
Glycaemia (NIDD STZ rats; [9]): 6.38 +/− 0.23 mM/l
Insulinaemia (NIDD STZ rats; [9]): 12.8 +/− 0.2 μU/ml
Lactates (NIDD STZ rats; [9]): 2.47 +/− 0.15 mM/l
Triglycerides (NIDD STZ rats; [9]): 0.96 +/− 0.12 mM/l
Cholesterol (NIDD STZ rats; [10]): 1.57 +/− 0.08 mM/l
Glycaemia (NIDD STZ rats; [10]): 14.41 +/− 0.36 mM/l
Lactates (NIDD STZ rats; [10]): 2.53 +/− 0.09 mM/l
Triglycerides (NIDD STZ rats; [10]): 1.05 +/− 0.03 mM/l
Effect on lactates (NIDD STZ rats; metformin 30 mg/kg/day, eight days): tendency to increase
Cholesterol (NIDD STZ rats; [11]): 1.48 +/− 0.06 mM/l
Glycaemia (NIDD STZ rats; [11]): **12.35 +/− 0.49 mM/l
Insulinaemia (NIDD STZ rats; [11]): 17.3 +/− 0.7 μU/ml
Lactates (NIDD STZ rats; [11]): *2.70 +/− 0.11 mM/l
Triglycerides (NIDD STZ rats; [11]): 0.96 +/− 0.05 mM/l
Decrease in glycaemia (NIDD STZ rats; metformin alone 30 mg/kg/day, D29 vs D21): 13.7%
